Laboratory results from US20230398153A1, “A METHOD FOR EFFICIENT MICROGLIA REPLACEMENT” (The Board of Trustees of the Leland Stanford Junior …, priority 2020, published 2023).

Experiments:
[1] = test system: myeloid cells of the spinal cord; assay: Microglia replacement in the spinal cord after BMT+PLX protocol; format: in vivo, mouse; conditions: PLX5622 treated group
Text: FIG. 21. Efficient microglia replacement in the spinal cord following our BMT+PLX protocol.
Many CNS diseases affect primarily the spinal cord. To evaluate whether our microglia replacement protocol is truly CNS-wide we characterized the spinal cords following a replacement as described above. Indeed, when using GFP-expressing donor cells we were able to identify a high and robust chimerism of GFP-positive, transplanted cell among the myeloid cells of the spinal cord (FIG. 21),

endogenous microglia = assay: Depletion of endogenous microglia by PLX5622 diet; format: in vivo, mouse; conditions: PLX5622 diet for 21 days
Text: FIG. 8. Circulation-derived myeloid cells adopt a ramified microglia-like morphology upon brain engraftment. (A and B) Flow cytometry gating for analysis of donor chimerism in PB leukocytes (CD45+) (A) and brain myeloid cells (CD45+CD11b+)(B). (C) Representative images of circulation-derived myeloid cells (CDMCs)([…]) and host microglia (Iba-1+GFP−) cells and DAPI in the cortex of recipient mice at the indicated time points. Scale bars:50 μm. (D) Representative images of Iba-1+ cells in the cortex of mice treated with control or PLX5622 diet for 21 days. The right panels in each group are enlarged images of the boxed areas in the left panels. Scale bars: […]. (E) Iba-1+ cell density in the indicated brain regions was analyzed by microscopy (Mean±SEM, n=3/group, 6 brain slices/animal were quantified. ***p<0.001, Student's t-test). […]
Immunofluorescence microscopy. […] Images were obtained using a Zeiss LSM710 confocal microscope or Zeiss AxioImager motorized widefield fluorescence microscope.
Image analysis. […] For morphological analyses, Iba1+ cells and GFP+ cells in the indicated brain regions were analyzed. The number of Iba1+ cells, and number of branch points were manually counted using ImageJ. […] The length of processes in Iba-1+ cells was analyzed semi-automatically using NeuronJ plugin. The ratio of cell body to total cell area was analyzed using FracLac plugin as described. […]

[2] = test system: peripheral blood cell populations; assay: Effect of PLX5622 after HSCT on peripheral blood cell populations; format: in vivo; conditions: PLX5622 10 days after HSCT, D38
Procedure: FIG. 9. […] (A) Flow cytometry gating for analysis of donor chimerism in PB myeloid cells. (B) Myeloid chimerism in PB was analyzed by flow cytometry at the indicated time point (Horizontal bars represent median values. n=5-6/time point, ns: not significant, Student's t-test). (C) The effect of PLX5622 on PB myeloid cells was analyzed by flow cytometry. Flow cytometry gating for analysis of the indicated cell populations on D38. (D) Quantification of number of the indicated cell populations by flow cytometry (Mean±SEM, n=6/group, ns: not significant, Student's t-test). (E) Representative images of GFP+ and Iba-1+ cells, and DAPI in the cortex of recipient mice at the indicated time points. Scale bars:[…].
The following FACS antibodies were used in this study. […]
Approximately 50 ul of peripheral blood per mouse was collected from the facial vein into a 1.5 ml tubes containing 20ul of 0.5M EDTA. […] The resulting cells were analyzed by flow cytometry.

SMILES: COc1ncc(F)cc1CNc1ccc(Cc2c[nH]c3ncc(C)cc23)c(F)n1 [PLX5622]
- myeloid cells GFP+ in total spinal cord by flow cytometry [1]: 90%
- elimination of endogenous microglia (Iba-1+ cell density) (endogenous microglia): efficient elimination of endogenous microglia throughout the brain
- composition of peripheral blood cell populations [2]: largely unaffected
